Data as given in patent US9593103B2, “Pyridyl hydrazones for the treatment of tuberculosis and related diseases” (TECNIMEDE SOCIEDADE TECNICO-MEDICINAL S.A., priority 2012, dated 2017).

Test system: Mycobacterium smegmatis
Test: In vitro Mycobacterium smegmatis growth inhibition assay (suspension turbidity, 96 hours)
Format: cell-based
Details: for % of Celular Growth at 96 hours: Mycobacterium smegmatis; for inhibitory activity against Mycobacterium smegmatis growth (in words, compared with RMP): compared with the active control RMP; for IC50: concentration to inhibit 50% of Mycobacterium smegmatis growth, four parameter curve fit

Row | Compound | % of Celular Growth at 96 hours (concentration 1.23 μM) | % of Celular Growth at 96 hours (concentration 3.70 μM) | % of Celular Growth at 96 hours (concentration 11.11 μM) | % of Celular Growth at 96 hours (concentration 33.33 μM) | % of Celular Growth at 96 hours (concentration 100.00 μM) | inhibitory activity against Mycobacterium smegmatis growth (in words, compared with RMP) | inhibitory activity against Mycobacterium smegmatis growth (in words, compared with RMP) (listed as N-pyridin-2-yl-N′-5-methyl-2-hydroxyphenylmethylene-hydrazine) | IC50 | inhibitory activity against Mycobacterium smegmatis growth (in words, compared with RMP) (listed as compound 42) | inhibitory activity against Mycobacterium smegmatis growth (in words, compared with RMP) (listed as N-pyridin-2-yl-N′-5-bromo-2-hydroxyphenylmethylene-hydrazine) | IC50 (Mycolicibacterium smegmatis)
1 | 2-hydroxy-5-methylbenzaldehyde-(2-pyridinyl)hydrazine [Compound 61] | 75.35% | 69.76% | 83.84% | 20.08% | 24.45% | better IC50 values than RMP | desired pharmacological activity | 13.5 µM | – | – | –
2 | 3,5-dibromo-2-hydroxybenzaldehyde (2-pyridinyl)hydrazine [Compound 42] | 110.06% | 104.48% | 98.17% | 41.52% | 31.91% | better IC50 values than RMP | – | 15.2 µM | superior inhibitory activity against Mycobacterium smegmatis than the prior art compound RMP | – | –
3 | Oc1ccc(Br)cc1C=NNc1ccccn1 [Compound 70, 5-bromo-2-hydroxybenzaldehyde-2pyridinilhydrazone] | 95.9% | 96.6% | 80.0% | 44.2% | 38.9% | better IC50 values than RMP | – | 13.9 µM | – | desired pharmacological activity | –
4 | C(=NNc1ccccn1)c1cccs1 [N-pyridin-2-yl-N′-thiophen-2-ylmethylene-hydrazine] | – | – | – | – | – | desired pharmacological activity | – | – | – | – | –
5 | CO[C@H]1/C=C/O[C@@]2(C)Oc3c(C)c(O)c4c(O)c(c(/C=N/N5CCN(C)CC5)c(O)c4c3C2=O)NC(=O)/C(C)=C\C=C\[C@H](C)[C@H](O)[C@@H](C)[C@@H](O)[C@@H](C)[C@H](OC(C)=O)[C@@H]1C [Rifampicin, reference compound] | 82.55% | 81.40% | 90.62% | 58.04% | 22.26% | – | – | – | – | – | 24.8 µM
